Results as given in ChEMBL document CHEMBL3297676, “Maximizing diversity from a kinase screen: identification of novel and selective pan-Trk inhibitors for chronic pain” (J Med Chem, 2014).
Calls of active or inactive are those of the source. No cut-off for these calls is given here.

Columns and labels:
[1] = target: T1, High affinity nerve growth factor receptor (Homo sapiens, UniProt P04629)
Target sequence in this assay (P04629 whole entry): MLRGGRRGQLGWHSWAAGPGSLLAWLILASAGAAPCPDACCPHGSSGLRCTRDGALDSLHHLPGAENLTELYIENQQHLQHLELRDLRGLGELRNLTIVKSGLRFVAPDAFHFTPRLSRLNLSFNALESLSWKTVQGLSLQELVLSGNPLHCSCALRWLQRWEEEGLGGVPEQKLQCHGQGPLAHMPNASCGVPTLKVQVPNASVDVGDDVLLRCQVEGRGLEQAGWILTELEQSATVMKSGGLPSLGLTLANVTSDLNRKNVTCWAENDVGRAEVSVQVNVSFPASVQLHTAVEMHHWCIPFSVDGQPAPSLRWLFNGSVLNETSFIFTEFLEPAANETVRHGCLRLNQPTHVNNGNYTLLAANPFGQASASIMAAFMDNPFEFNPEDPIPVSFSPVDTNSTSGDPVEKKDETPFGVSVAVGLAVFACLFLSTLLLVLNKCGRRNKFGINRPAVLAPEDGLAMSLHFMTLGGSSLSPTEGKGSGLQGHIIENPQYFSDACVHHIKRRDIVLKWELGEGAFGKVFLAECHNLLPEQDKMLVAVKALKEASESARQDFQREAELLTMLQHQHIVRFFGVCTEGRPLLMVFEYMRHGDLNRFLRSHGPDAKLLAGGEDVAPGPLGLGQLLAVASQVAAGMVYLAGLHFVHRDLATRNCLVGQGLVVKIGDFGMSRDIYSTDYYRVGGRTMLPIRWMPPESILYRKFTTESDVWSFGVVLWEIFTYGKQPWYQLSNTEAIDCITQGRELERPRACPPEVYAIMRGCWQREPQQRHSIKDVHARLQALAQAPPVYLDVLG
Description: Inhibition of phsophorylated TrkA (unknown origin) assessed as inhibition of fluorescently-labelled substrate phosphorylation by CALIPER enzymatic assay

[2] = target: T1, High affinity nerve growth factor receptor; remark: listed apart in the source
Target sequence in this assay (P04629 whole entry): as above
Description: Inhibition of human TrkA expressed in human U2OS cells assessed as inhibition of NGF-induced maximum response after 1 hr by beta-galactosidase assay

[3] = target: T1, High affinity nerve growth factor receptor; assay: Inhibition of purified TrkA cytoplasmic domain (unknown origin) by HTRF assay
Target sequence in this assay (P04629 whole entry): as above

[4] = target: T1, High affinity nerve growth factor receptor; remark: listed apart in the source
Target sequence in this assay (P04629 whole entry): as above
Description: Binding affinity to His-tagged TrkA (unknown origin) after 1 hr by SPR method

[5] = target: T1, High affinity nerve growth factor receptor; remark: listed apart in the source
Target sequence in this assay (P04629 33-796 limits assumed): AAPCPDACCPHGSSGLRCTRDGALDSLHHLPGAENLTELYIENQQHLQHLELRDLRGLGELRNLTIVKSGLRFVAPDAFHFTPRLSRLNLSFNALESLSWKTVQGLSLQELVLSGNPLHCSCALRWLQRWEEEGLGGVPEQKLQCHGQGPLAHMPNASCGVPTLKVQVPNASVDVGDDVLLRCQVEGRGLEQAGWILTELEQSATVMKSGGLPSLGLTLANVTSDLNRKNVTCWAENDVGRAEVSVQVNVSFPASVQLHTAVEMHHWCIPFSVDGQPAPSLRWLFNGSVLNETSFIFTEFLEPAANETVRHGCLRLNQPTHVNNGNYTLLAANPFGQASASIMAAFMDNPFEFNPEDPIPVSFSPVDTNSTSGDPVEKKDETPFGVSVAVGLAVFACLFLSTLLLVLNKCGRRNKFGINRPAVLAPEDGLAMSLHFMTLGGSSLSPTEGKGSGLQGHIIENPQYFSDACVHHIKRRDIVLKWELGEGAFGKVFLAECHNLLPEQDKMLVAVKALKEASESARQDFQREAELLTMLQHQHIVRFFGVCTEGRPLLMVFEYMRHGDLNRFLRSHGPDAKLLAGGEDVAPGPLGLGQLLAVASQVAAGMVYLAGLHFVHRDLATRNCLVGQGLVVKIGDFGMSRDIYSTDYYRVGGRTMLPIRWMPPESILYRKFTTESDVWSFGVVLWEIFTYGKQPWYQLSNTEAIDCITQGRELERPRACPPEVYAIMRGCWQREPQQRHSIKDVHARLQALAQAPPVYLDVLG
Description: Binding affinity to His-tagged TrkA (unknown origin) assessed as half life after 1 hr by SPR method

Rattus norvegicus [6] = assay: Antiinflammatory activity in Complete-Freunds adjuvant-induced Sprague-Dawley rat pain model assessed as reversal of mechanical hypersensitivity at 30 mg/kg, po bid for 7 days; type: functional, organism-based; set-up: dose 30 mg/kg
[7] = Clearance in rat; type: ADME, organism-based; conditions: in vivo
[8] = Half life in rat; type: ADME, organism-based; conditions: in vivo
[9] = Oral bioavailability in rat; type: ADME, organism-based; conditions: in vivo
[10] = Plasma protein binding in rat; type: ADME, cell-free; conditions: read-out: PPB (converted)
Rattus norvegicus [11] = assay: Antiinflammatory activity in Complete-Freunds adjuvant-induced Sprague-Dawley rat pain model assessed as reversal of mechanical hypersensitivity at 100 mg/kg, po bid for 7 days; type: functional, organism-based; set-up: dose 100 mg/kg
[12] = Plasma concentration in Complete-Freunds adjuvant-induced Sprague-Dawley rat pain model at 10 mg/kg, po after 2 hrs; type: ADME, organism-based; set-up: dose 10 mg/kg, route oral
[13] = Plasma concentration in Complete-Freunds adjuvant-induced Sprague-Dawley rat pain model at 30 mg/kg, po after 2 hrs; type: ADME, organism-based; set-up: dose 30 mg/kg, route oral
[14] = Plasma concentration in Complete-Freunds adjuvant-induced Sprague-Dawley rat pain model at 100 mg/kg, po after 2 hrs; type: ADME, organism-based; set-up: dose 100 mg/kg, route oral
Plasma [15] = assay: Fraction unbound in plasma of Complete-Freunds adjuvant-induced Sprague-Dawley rat pain model at 10 mg/kg, po after 2 hrs; type: ADME, organism-based; set-up: dose 10 mg/kg, route oral; conditions: in vivo
Plasma [16] = assay: Fraction unbound in plasma of Complete-Freunds adjuvant-induced Sprague-Dawley rat pain model at 30 mg/kg, po after 2 hrs; type: ADME, organism-based; set-up: dose 30 mg/kg, route oral; conditions: in vivo
Plasma [17] = assay: Fraction unbound in plasma of Complete-Freunds adjuvant-induced Sprague-Dawley rat pain model at 100 mg/kg, po after 2 hrs; type: ADME, organism-based; set-up: dose 100 mg/kg, route oral; conditions: in vivo
[18] = Ratio of fraction unbound in plasma of Complete-Freunds adjuvant-induced Sprague-Dawley rat pain model at 10 mg/kg, po after 2 hrs to IC50 for human TrkA expressed in human U2OS cells; type: ADME, organism-based; set-up: dose 10 mg/kg, route oral; conditions: in vivo
[19] = Ratio of fraction unbound in plasma of Complete-Freunds adjuvant-induced Sprague-Dawley rat pain model at 30 mg/kg, po after 2 hrs to IC50 for human TrkA expressed in human U2OS cells; type: ADME, organism-based; set-up: dose 30 mg/kg, route oral; conditions: in vivo
[20] = Ratio of fraction unbound in plasma of Complete-Freunds adjuvant-induced Sprague-Dawley rat pain model at 100 mg/kg, po after 2 hrs to IC50 for human TrkA expressed in human U2OS cells; type: ADME, organism-based; set-up: dose 100 mg/kg, route oral; conditions: in vivo
Rattus norvegicus [21] = assay: Analgesic activity in Sprague-Dawley rat Chung spinal nerve ligation model assessed as reversal of mechanical hypersensitivity at 30 mg/kg, po relative to control; type: functional
Plasma [22] = assay: Plasma concentration in Sprague-Dawley rat Chung spinal nerve ligation model assessed as reversal of mechanical hypersensitivity at 10 mg/kg, po; type: ADME, organism-based; set-up: dose 10 mg/kg, route oral; conditions: in vivo
Plasma [23] = assay: Plasma concentration in Sprague-Dawley rat Chung spinal nerve ligation model assessed as reversal of mechanical hypersensitivity at 30 mg/kg, po; type: ADME, organism-based; set-up: dose 30 mg/kg, route oral; conditions: in vivo
Plasma [24] = assay: Plasma concentration in Sprague-Dawley rat Chung spinal nerve ligation model assessed as reversal of mechanical hypersensitivity at 100 mg/kg, po; type: ADME, organism-based; set-up: dose 100 mg/kg, route oral; conditions: in vivo
Plasma [25] = assay: Fraction unbound in plasma of Sprague-Dawley rat Chung spinal nerve ligation model assessed as reversal of mechanical hypersensitivity at 10 mg/kg, po; type: ADME, organism-based; set-up: dose 10 mg/kg, route oral; conditions: in vivo
Plasma [26] = assay: Fraction unbound in plasma of Sprague-Dawley rat Chung spinal nerve ligation model assessed as reversal of mechanical hypersensitivity at 30 mg/kg, po; type: ADME, organism-based; set-up: dose 30 mg/kg, route oral; conditions: in vivo
Plasma [27] = assay: Fraction unbound in plasma of Sprague-Dawley rat Chung spinal nerve ligation model assessed as reversal of mechanical hypersensitivity at 100 mg/kg, po; type: ADME, organism-based; set-up: dose 100 mg/kg, route oral; conditions: in vivo
[28] = Ratio of fraction unbound in plasma of Sprague-Dawley rat Chung spinal nerve ligation model assessed as reversal of mechanical hypersensitivity at 10 mg/kg, po to IC50 for human TrkA expressed in human U2OS cells; type: ADME, organism-based; set-up: dose 10 mg/kg, route oral; conditions: in vivo
[29] = Ratio of fraction unbound in plasma of Sprague-Dawley rat Chung spinal nerve ligation model assessed as reversal of mechanical hypersensitivity at 30 mg/kg, po to IC50 for human TrkA expressed in human U2OS cells; type: ADME, organism-based; set-up: dose 30 mg/kg, route oral; conditions: in vivo
[30] = Ratio of fraction unbound in plasma of Sprague-Dawley rat Chung spinal nerve ligation model assessed as reversal of mechanical hypersensitivity at 100 mg/kg, po to IC50 for human TrkA expressed in human U2OS cells; type: ADME, organism-based; set-up: dose 100 mg/kg, route oral; conditions: in vivo
Rattus norvegicus [31] = assay: Analgesic activity in po dosed Sprague-Dawley rat Chung spinal nerve ligation model assessed as reversal of mechanical hypersensitivity relative to control; type: functional, organism-based

## CCOc1cccc(-c2nccc3c2cc(C(=O)O)n3CCOc2ccc(OC(F)(F)F)cc2)c1
[1]
  IC50: 348 nM
[2]
  IC50: 59 nM

## Cc1cn2cc(CNc3ncnc4ccc(N5CCC[C@@H]5c5cc(F)ccc5F)nc34)nc2s1
[3]
  IC50: 1.5 nM
[1]
  IC50: 13 nM

## O=C(NCc1cccc(-c2nccs2)c1)Nc1ccc(OC(F)(F)F)cc1
[1]
  IC50: > 100000 nM

## O=C(O)c1cc2cc(-c3cc[nH]n3)ccc2n1CCOc1ccc(OC(F)(F)F)cc1
[1]
  IC50: 51 nM
[2]
  IC50: 29 nM

## CCOc1cccc(-c2nccc3c2cc(C(=O)O)n3CCOc2ccc(Cl)cc2)c1
[1]
  IC50: 653 nM
[2]
  IC50: 200 nM
[4]
  Kd: 3.5 nM
[5]
  T1/2: 2.13 h

## O=C(O)c1cc2cnccc2n1CCOc1ccc(OC(F)(F)F)cc1
[1]
  IC50: 12300 nM
[2]
  IC50: 15800 nM

## CCOc1cccc(-c2nccc3c2cc(C(=O)O)n3CCOc2ccccc2)c1
[1]
  IC50: 2070 nM
[2]
  IC50: 109 nM

## CC(C)N(Cc1cccc(-c2nccs2)c1)C(=O)Nc1ccc(OC(F)(F)F)cc1
[1]
  IC50: 132 nM
[2]
  IC50: 56 nM
[4]
  Kd: 63 nM
[5]
  T1/2: 0.1 h

## CC(C)(C)c1cc(NC(=O)Cn2cc(-c3ccc(-n4ccnc4)nc3)nn2)n(-c2cccnc2)n1
[3]
  IC50: 9 nM
Rattus norvegicus [6]
  inhibition: Active
[7]
  clearance: 16 mL/min/kg
[8]
  half-life: 2.6 h
[9]
  bioavailability: 30%
[10]
  fraction unbound: 0.005
Rattus norvegicus [11]
  inhibition: Active
[12]
  concentration at 2 h: 1000 nM
[13]
  concentration at 2 h: 4000 nM
[14]
  concentration at 2 h: 16000 nM
Plasma [15]
  Cp(f): 5 nM
Plasma [16]
  Cp(f): 20 nM
Plasma [17]
  Cp(f): 80 nM
[18]
  Ratio: 1
[19]
  Ratio: 4
[20]
  Ratio: 16
Rattus norvegicus [21]
  inhibition in vivo at 30 mg/kg: 50%
Plasma [22]
  concentration: 1000 nM
Plasma [23]
  concentration: 6700 nM
Plasma [24]
  concentration: 23000 nM
Plasma [25]
  Cp(f): 5 nM
Plasma [26]
  Cp(f): 34 nM
Plasma [27]
  Cp(f): 115 nM
[28]
  Ratio: 1
[29]
  Ratio: 6
[30]
  Ratio: 23
[2]
  IC50: 7 nM
[4]
  Kd: 0.94 nM
[5]
  T1/2: 1.13 h

## Cc1cn(-c2ccc(-c3cn(CC(=O)Nc4cc(C5CC5)nn4-c4ccccc4)nn3)cc2)cn1
[3]
  IC50: 60 nM
[2]
  IC50: 9 nM

## CC(C)C[C@H](CN)CC(=O)O
Rattus norvegicus [31]
  inhibition: Active

## c1cncc(CNc2ccc3ncnc(Nc4ccc(N5CCOCC5)cc4)c3n2)c1
[3]
  IC50: 997 nM

## CC(C)N(Cc1c[nH]c2ncccc12)C(=O)Nc1ccc(OC(F)(F)F)cc1
[1]
  IC50: 11 nM
[2]
  IC50: 3 nM

## N#Cc1ccc2c(c1)cc(C(=O)O)n2CCOc1ccc(OC(F)(F)F)cc1
[1]
  IC50: 118 nM
[2]
  IC50: 150 nM

## COc1ccc2cc([C@H](C)C(=O)O)ccc2c1
Rattus norvegicus [6]
  inhibition: Active

## CN1CCN(c2ccc(Nc3ncnc4ccc(NCc5cccc(Cl)c5)nc34)cc2)CC1
[3]
  IC50: 11 nM
[1]
  IC50: 1690 nM
[4]
  Kd: 63 nM
